Columns and labels:
Format in all cases: cell-based
RARβ = molecular target: T1, RARβ (Mus musculus, UniProt P22605); test: RAR beta transactivation assay (gal4-RAR LBD fusion, luciferase reporter, COS-7 cells); details: for Fold selectivity for β over γ: EC50 ratio of γ to β; for Fold selectivity for β over γ / Fold selectivity for β over α: mouse; for EC50: mouse RAR ligand binding domain, usually three experiments, read-out: β EC50; for Fold selectivity for β over α: EC50 ratio of α to β, Tables 1 and 4
T1 construct: expressed in transfected cells; host or cells: COS-7
T1 sequence (P22605 210-444 limits assumed): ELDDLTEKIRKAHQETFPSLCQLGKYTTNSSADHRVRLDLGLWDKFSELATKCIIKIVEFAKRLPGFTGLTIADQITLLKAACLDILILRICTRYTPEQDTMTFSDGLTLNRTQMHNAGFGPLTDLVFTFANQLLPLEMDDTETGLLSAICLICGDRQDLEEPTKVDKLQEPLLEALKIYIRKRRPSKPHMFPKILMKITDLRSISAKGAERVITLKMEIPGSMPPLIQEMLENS
Procedure: (§1) Compounds were tested in transactivation assays at the RAR α, β and γ receptors.
(§2) Transactivation assays for RAR alpha, beta and gamma receptors:
(§3) Transcriptional transactivation assays have been performed with gal4 fusion receptor constructs, created using each of the mouse RAR ligand-binding domains, co-transfected with the pFR-luc (Stratagene) reporter construct in COS-7 cells.
(§4) Briefly, on day one, 96 well plates were seeded with 8000 cells per well then left to recover overnight. On day two, the cells were co-transfected with 100ng of reporter plasmid and 10ng of the appropriate receptor plasmid per well using lipofectamine (Invitrogen). On day three, the lipofectamine containing media was replaced by a DMEM without phenol red, followed by the addition of novel compounds dissolved in 1µl of DMSO to each well’s 100µl total volume. Finally, on day four, the cells were lysed and their luciferase substrate was provided by the BrightGlo reagent (Promega), the plates were then read on the MicroBeta TriLux (Perkin Elmer).
(§5) Data for test compounds are quoted as EC50 values. Where replicate data has been generated the data are quoted as the mean EC50 from the separate experiments.

RARα = molecular target: T2, RARα (Mus musculus, UniProt P11416); test: RAR alpha transactivation assay (gal4-RAR LBD fusion, luciferase reporter, COS-7 cells); details: mouse RAR ligand binding domain; usually three experiments; read-out: α EC50
T2 construct: expressed in transfected cells; host or cells: COS-7
T2 sequence (P11416 183-417 limits assumed): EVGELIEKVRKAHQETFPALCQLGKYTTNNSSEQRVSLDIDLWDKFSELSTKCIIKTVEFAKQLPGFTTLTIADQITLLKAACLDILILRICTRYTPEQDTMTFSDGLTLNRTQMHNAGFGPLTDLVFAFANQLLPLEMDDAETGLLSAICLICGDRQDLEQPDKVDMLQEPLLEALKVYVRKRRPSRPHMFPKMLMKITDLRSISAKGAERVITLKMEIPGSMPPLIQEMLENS
Procedure: as §1, §2, §3, §4, §5

RARγ = molecular target: T3, RARγ (Mus musculus, UniProt P18911); test: RAR gamma transactivation assay (gal4-RAR LBD fusion, luciferase reporter, COS-7 cells); details: mouse RAR ligand binding domain; Tables 1 and 4; read-out: γ EC50
T3 construct: expressed in transfected cells; host or cells: COS-7
T3 sequence (P18911 185-419 limits assumed): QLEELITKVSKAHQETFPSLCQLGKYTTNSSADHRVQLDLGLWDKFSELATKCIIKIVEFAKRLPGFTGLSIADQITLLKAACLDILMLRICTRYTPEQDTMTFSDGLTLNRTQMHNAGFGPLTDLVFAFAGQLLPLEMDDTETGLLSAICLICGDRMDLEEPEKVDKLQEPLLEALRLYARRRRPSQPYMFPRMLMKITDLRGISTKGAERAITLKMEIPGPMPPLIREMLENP
Procedure: as §1, §2, §3, §4, §5

Row | SMILES | Fold selectivity for β over γ (RARβ) | EC50 (RARβ) [nM] | EC50 (RARα) [nM] | fold loss in potency as a RARβ agonist relative to 5 (RARβ; relative to 5) [fold] | Fold selectivity for β over α (RARβ) | EC50 (RARγ) [nM] | fold more potent than 1 as an RARβ agonist (RARβ; relative to amide 1) [fold]
1 | Cc1ccc(C)c2oc(-c3nc(-c4ccc(C(=O)O)cc4F)no3)cc12 [Compound 16] | 0.33 | 11 | 61 | – | – | – | –
2 | CC1(C)CCC(C)(C)c2cc(-c3nc(-c4ccc(C(=O)O)cc4)no3)ccc21 [Compound 8] | 0.0041 | 4200 | 18 | > 2700 | – | – | –
3 | CCOc1c(Cl)cc(C(=O)Nc2ccc(C(=O)O)cc2)cc1Cl [Compound 1, 4-[(3,5-dichloro-4-ethoxybenzoyl)amino]benzoic acid] | 24 | 1230 | 46 | – | 0.037 | – | –
4 | CC(C)(C)c1cc(-c2nc(-c3ccc(C(=O)O)cc3)no2)cc(C(C)(C)C)c1 [Compound 9] | 2.1 | 1.4 | 4 | – | – | – | –
5 | CCOc1c(Cl)cc(-c2noc(-c3ccc(C(=O)O)cc3)n2)cc1Cl [Compound 6] | 0.05 | 110 | 31 | – | 0.28 | – | –
6 | CCOc1c(Cl)cc(-c2csc(-c3ccc(C(=O)O)cc3)n2)cc1Cl [Compound 2] | 1.3 | 120 | 240 | – | 2 | – | –
7 | CCOc1c(Cl)cc(-c2c[nH]c(-c3ccc(C(=O)O)cc3)n2)cc1Cl [Compound 3] | – | 423 | 594 | – | 1.4 | – | –
8 | O=C(O)c1ccc(-c2noc(-c3cc4c(C(F)(F)F)ccc(F)c4o3)n2)cc1 [Compound 11] | 2 | 2.5 | 19 | – | – | – | –
9 | Cc1cc(-c2noc(-c3cc4c(C)ccc(C)c4o3)n2)ccc1C(=O)O [Compound 15] | 1.8 | 14 | 89 | – | – | – | –
10 | CCCCOCCOc1nc(-c2ccc(C(=O)O)c(F)c2)sc1C [AC 261066, reference compound] | 2.8 | 12 | 70 | – | 5.8 | 33 | –
11 | CCOc1c(Cl)cc(-c2nnc(-c3ccc(C(=O)O)cc3)o2)cc1Cl [Compound 7] | 2.4 | 63 | 58 | – | 0.92 | – | –
12 | Cc1ccc(C)c2oc(-c3nc(-c4ccc(C(=O)O)cc4)no3)nc12 [Compound 13] | 7.5 | 11 | 114 | – | – | – | –
13 | Cc1ccc(C)c2oc(-c3nc(-c4ccc(C(=O)O)c(F)c4)no3)cc12 [Compound 14] | 3.8 | 2.2 | 16 | – | – | – | –
14 | COc1ccc(-c2ccc3cc(C(=O)O)ccc3c2)cc1C1(C)CCCCC1 [CD 2019, reference compound] | – | 0.83 | 9.2 | – | – | 1.6 | –
15 | CCOc1c(Cl)cc(-c2nc(-c3ccc(C(=O)O)cc3)no2)cc1Cl [Compound 5] | 19 | 1.5 | 18 | – | 12 | 28 | –
16 | Cc1cc(C(=O)O)ccc1-c1noc(-c2cc3c(C)ccc(C)c3o2)n1 [Compound 17] | 0.3 | 47 | 600 | – | – | – | –
17 | Cc1ccc(C)c2sc(-c3nc(-c4ccc(C(=O)O)cc4)no3)cc12 [Compound 12] | 2 | 3.4 | 30 | – | – | – | –
18 | CCOc1c(Cl)cc(-c2cnc(-c3ccc(C(=O)O)cc3)o2)cc1Cl [Compound 4] | 1.6 | 28 | 60 | – | 2.1 | – | > 40

— PMC6419571, “Discovery and lead optimisation of a potent, selective and orally bioavailable RARβ agonist for the potential treatment of nerve injury” (Bioorganic & Medicinal Chemistry Letters, 2019)
